What was measured:
Assay in all cases: FRET-based coupled-enzyme protein kinase inhibition assay
Format in all cases: biochemical
Details in all cases: compound at 10 µM, 1% DMSO
FRAP1 (mTOR) = FRAP1 (mTOR) (Homo sapiens, UniProt P42345)
Summary of the method: (§1)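 Inhibition was quantified ratiometrically, as coumarin over fluorescein emission following 400 nm excitation, on a doubly labeled peptide whose cleavage by development reagent requires it to remain unphosphorylated. Kinase reactions ran 60 min at room temperature with ATP at apparent Km.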

ABL1 = ABL1 (Homo sapiens, UniProt P00519)
Summary of the method: as §1

IKBKB (IKK beta) = target: T1, IKBKB (IKK beta) (Homo sapiens, UniProt O14920)
T1 sequence (O14920 1-756): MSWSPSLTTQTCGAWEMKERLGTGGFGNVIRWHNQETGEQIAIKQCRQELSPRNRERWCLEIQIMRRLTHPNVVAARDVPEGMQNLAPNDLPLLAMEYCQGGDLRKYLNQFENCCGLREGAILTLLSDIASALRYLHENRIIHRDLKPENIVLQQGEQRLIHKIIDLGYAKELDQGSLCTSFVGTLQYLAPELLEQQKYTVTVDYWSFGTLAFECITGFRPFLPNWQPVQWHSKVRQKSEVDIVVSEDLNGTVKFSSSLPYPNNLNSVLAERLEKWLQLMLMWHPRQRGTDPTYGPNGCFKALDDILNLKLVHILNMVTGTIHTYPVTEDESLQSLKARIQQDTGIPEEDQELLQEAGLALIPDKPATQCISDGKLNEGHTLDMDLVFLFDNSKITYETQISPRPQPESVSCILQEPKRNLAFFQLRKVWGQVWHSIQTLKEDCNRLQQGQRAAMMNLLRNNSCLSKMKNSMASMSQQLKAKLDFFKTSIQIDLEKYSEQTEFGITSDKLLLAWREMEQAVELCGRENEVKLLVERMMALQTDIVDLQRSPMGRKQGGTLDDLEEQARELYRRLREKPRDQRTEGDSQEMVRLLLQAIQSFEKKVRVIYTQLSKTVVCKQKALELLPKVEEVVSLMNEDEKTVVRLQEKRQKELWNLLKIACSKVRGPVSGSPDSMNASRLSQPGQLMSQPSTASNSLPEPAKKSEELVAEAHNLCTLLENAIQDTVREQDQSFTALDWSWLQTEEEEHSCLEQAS
Summary of the method: as §1

TEK (Tie2) = TEK (Tie2) (Homo sapiens, UniProt Q02763)
TEK (Tie2), sequence (Q02763 23-1124, species assumed): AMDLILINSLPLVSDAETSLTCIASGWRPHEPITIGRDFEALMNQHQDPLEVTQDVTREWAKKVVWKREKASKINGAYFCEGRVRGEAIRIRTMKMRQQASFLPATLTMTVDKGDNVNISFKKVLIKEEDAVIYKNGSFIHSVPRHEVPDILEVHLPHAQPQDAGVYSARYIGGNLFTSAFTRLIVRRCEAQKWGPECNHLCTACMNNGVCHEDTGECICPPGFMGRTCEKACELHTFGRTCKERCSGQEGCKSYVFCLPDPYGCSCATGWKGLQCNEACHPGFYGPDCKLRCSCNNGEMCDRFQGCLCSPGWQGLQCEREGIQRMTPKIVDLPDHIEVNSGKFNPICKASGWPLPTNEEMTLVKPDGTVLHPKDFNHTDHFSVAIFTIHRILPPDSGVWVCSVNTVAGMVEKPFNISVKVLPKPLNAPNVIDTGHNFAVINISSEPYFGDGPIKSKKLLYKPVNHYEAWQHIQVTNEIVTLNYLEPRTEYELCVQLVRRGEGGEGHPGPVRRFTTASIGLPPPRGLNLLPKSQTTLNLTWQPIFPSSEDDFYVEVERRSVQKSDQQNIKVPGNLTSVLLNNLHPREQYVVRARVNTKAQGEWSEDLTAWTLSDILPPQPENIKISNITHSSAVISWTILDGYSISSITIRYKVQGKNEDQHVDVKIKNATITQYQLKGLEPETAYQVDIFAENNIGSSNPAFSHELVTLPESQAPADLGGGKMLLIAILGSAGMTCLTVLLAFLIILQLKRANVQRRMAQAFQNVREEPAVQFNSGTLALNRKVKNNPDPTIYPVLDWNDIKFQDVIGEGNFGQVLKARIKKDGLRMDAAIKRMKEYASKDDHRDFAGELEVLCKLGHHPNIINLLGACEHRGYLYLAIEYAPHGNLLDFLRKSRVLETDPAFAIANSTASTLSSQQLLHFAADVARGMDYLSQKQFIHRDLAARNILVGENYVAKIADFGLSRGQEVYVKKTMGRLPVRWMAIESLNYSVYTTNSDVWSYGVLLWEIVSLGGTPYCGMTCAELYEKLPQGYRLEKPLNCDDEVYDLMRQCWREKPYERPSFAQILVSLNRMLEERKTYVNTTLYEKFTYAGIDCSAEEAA
Summary of the method: as §1

AURKA (Aurora A) = target: T2, AURKA (Aurora A) (Homo sapiens, UniProt O14965)
T2 sequence (O14965 1-403): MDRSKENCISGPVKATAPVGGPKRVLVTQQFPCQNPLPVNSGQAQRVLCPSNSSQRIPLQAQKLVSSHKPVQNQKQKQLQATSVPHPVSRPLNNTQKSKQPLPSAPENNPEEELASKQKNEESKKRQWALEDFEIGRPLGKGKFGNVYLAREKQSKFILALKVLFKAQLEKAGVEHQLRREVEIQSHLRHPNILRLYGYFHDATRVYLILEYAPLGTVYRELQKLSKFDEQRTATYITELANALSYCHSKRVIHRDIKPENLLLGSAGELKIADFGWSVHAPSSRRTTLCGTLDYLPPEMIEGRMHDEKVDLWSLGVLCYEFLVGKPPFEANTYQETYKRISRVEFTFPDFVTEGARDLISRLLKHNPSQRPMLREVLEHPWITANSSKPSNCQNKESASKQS
Summary of the method: as §1

AMPK A1/B1/G1 = AMPK A1/B1/G1 (Homo sapiens, UniProt Q13131)
AMPK A1/B1/G1, sequence (Q13131 whole entry): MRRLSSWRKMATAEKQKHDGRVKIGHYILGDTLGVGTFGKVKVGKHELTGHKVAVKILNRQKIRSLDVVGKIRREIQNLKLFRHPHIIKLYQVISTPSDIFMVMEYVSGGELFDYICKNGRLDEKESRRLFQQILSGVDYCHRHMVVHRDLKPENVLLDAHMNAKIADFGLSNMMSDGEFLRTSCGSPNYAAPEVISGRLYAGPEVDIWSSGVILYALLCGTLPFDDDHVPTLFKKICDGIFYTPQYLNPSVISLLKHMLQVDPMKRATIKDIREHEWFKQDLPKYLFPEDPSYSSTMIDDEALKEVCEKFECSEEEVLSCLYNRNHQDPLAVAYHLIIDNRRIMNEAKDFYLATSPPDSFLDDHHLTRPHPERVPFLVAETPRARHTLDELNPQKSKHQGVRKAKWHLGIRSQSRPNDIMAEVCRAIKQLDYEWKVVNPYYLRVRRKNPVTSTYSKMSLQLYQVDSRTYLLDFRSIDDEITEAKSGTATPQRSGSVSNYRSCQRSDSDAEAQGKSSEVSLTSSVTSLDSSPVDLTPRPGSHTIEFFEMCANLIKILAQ
AMPK A1/B1/G1, sequence (Q9Y478 whole entry partner): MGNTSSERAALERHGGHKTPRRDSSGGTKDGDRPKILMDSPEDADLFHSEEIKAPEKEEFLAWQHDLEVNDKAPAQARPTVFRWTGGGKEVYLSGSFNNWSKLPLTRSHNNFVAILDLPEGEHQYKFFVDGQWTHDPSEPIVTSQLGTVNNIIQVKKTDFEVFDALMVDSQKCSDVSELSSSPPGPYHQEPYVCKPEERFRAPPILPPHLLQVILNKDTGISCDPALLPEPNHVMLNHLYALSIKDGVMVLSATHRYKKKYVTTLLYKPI
AMPK A1/B1/G1, sequence (P54619 whole entry partner): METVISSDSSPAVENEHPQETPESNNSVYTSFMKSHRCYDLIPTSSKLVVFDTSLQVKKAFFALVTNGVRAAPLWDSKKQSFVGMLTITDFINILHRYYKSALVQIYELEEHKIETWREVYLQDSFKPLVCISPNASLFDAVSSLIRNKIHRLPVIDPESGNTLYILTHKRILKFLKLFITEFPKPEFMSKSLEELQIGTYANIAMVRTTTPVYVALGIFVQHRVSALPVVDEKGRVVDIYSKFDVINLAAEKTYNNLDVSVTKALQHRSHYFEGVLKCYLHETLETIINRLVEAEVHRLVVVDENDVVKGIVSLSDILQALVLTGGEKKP
Summary of the method: as §1

MARK2 = MARK2 (Homo sapiens, UniProt Q7KZI7)
MARK2, sequence (Q7KZI7 whole entry, species assumed): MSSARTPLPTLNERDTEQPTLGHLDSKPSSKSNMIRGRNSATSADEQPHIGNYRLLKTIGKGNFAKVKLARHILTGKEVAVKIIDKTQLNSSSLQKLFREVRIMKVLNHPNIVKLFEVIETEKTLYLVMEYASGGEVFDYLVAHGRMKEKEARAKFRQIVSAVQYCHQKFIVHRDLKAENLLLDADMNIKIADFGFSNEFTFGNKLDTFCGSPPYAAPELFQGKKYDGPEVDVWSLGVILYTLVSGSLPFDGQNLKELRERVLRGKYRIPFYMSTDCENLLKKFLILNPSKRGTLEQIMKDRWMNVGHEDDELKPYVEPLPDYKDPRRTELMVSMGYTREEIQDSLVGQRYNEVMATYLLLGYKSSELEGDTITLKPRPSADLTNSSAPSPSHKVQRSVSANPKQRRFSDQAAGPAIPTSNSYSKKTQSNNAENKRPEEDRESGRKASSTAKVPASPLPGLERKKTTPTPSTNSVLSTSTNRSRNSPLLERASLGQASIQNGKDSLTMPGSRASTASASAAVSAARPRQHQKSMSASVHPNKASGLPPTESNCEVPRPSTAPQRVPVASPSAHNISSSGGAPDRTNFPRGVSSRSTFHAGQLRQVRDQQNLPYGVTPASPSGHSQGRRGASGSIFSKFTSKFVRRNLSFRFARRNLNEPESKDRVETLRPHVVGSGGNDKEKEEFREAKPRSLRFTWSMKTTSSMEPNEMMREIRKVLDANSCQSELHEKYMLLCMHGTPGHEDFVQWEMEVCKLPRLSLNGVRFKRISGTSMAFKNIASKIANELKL
Summary of the method: as §1

GSK3B (GSK3 beta) = GSK3B (GSK3 beta) (Homo sapiens, UniProt P49841)
GSK3B (GSK3 beta), sequence (P49841 whole entry, species assumed): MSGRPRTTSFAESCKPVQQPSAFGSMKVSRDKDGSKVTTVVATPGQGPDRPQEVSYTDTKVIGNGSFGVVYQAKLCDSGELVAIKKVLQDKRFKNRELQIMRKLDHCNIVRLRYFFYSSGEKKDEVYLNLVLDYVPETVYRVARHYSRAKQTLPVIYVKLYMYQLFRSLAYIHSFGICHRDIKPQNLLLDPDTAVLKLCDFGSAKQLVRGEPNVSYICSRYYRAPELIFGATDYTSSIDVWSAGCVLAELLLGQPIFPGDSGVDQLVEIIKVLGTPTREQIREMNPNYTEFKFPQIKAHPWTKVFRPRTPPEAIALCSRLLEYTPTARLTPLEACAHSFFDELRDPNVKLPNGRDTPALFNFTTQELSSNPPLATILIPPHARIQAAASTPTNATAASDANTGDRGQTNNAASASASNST
Summary of the method: as §1

EPHA2 = EPHA2 (Homo sapiens, UniProt P29317)
EPHA2, sequence (P29317 24-976, species assumed): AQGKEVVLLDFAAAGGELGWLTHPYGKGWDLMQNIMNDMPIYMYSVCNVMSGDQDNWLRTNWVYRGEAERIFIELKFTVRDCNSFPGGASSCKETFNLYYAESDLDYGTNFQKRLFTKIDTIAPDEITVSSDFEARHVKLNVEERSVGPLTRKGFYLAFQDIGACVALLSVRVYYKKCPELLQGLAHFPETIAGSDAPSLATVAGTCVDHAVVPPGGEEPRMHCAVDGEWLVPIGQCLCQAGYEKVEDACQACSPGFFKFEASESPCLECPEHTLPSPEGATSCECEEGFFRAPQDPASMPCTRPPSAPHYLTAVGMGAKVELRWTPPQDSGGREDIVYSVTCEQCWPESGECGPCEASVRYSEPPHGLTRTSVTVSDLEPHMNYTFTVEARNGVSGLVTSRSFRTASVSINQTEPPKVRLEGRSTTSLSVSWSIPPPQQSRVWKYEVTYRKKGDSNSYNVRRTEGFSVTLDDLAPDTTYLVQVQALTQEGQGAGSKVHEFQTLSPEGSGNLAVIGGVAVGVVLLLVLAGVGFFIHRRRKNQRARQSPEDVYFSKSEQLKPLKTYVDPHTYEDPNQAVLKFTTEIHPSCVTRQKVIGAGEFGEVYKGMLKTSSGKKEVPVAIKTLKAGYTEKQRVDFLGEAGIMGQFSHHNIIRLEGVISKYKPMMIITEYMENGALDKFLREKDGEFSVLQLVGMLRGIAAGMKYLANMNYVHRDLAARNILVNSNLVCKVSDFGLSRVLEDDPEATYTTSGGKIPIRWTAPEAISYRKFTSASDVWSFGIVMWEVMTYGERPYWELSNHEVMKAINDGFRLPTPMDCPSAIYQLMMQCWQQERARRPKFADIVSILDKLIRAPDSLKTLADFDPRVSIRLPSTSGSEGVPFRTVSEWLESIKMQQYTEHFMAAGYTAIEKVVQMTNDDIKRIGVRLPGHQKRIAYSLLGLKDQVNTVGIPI
Summary of the method: as §1

SMILES	inhibition at 10 µM (FRAP1 (mTOR))	inhibition at 10 µM (ABL1)	inhibition at 10 µM (IKBKB (IKK beta))	inhibition at 10 µM (TEK (Tie2))	inhibition at 10 µM (AURKA (Aurora A))	inhibition at 10 µM (AMPK A1/B1/G1)	inhibition at 10 µM (MARK2)	inhibition at 10 µM (GSK3B (GSK3 beta))	inhibition at 10 µM (EPHA2)
CC(C)N1CCC(NC(=O)OC[C@H]2O[C@@H](n3cnc4c(N)ncnc43)[C@H](O)[C@@H]2O)CC1 [Compound C19]	5%	-3%	-6%	6%	6%	5%	7%	6%	7%
Nc1ncnc2c1ncn2[C@@H]1O[C@H](COC(=O)N2CCN(Cc3ccccc3)CC2CO)[C@@H](O)[C@H]1O (stereo partly drawn) [Compound C13]	-1%	0%	-7%	5%	-1%	6%	11%	4%	3%
C[C@@H](NC(=O)OC[C@H]1O[C@@H](n2cnc3c(N)ncnc32)[C@H](O)[C@@H]1O)c1ccc(Cl)cc1 [Compound C4]	-5%	11%	-6%	12%	8%	17%	20%	8%	4%
Nc1ncnc2c1ncn2[C@@H]1O[C@H](COC(=O)NC[C@H](O)CO)[C@@H](O)[C@H]1O [Compound C8]	5%	22%	-6%	-3%	-7%	17%	10%	21%	12%
Nc1ncnc2c1ncn2[C@@H]1O[C@H](COC(=O)N[C@@H]2CCN(Cc3ccccc3)C2)[C@@H](O)[C@H]1O [Compound C10]	-3%	10%	-11%	6%	-1%	11%	8%	8%	9%
Nc1ncnc2c1ncn2[C@@H]1O[C@H](COC(=O)N2CCN(C(=O)N3CCOCC3)CC2)[C@@H](O)[C@H]1O [Compound C89]	-4%	-3%	-10%	-2%	-7%	2%	-3%	-2%	6%
Nc1ncnc2c1ncn2[C@@H]1O[C@H](COC(=O)N2CCS(=O)(=O)CC2)[C@@H](O)[C@H]1O [Compound C100]	-2%	1%	-9%	2%	-7%	4%	15%	5%	4%
Nc1ncnc2c1ncn2[C@@H]1O[C@H](COC(=O)N2CCN(CCc3ccccc3)CC2)[C@@H](O)[C@H]1O [Compound C26]	-6%	2%	-8%	-4%	1%	3%	18%	6%	-1%
CN(C)CCNC(=O)OC[C@H]1O[C@@H](n2cnc3c(N)ncnc32)[C@H](O)[C@@H]1O [Compound C85]	2%	-2%	-10%	0%	-11%	4%	4%	-5%	4%
CS(=O)(=O)N1CC2(CCN(C(=O)OC[C@H]3O[C@@H](n4cnc5c(N)ncnc54)[C@H](O)[C@@H]3O)CC2)c2ccccc21 [Compound C98]	2%	15%	-8%	58%	0%	9%	2%	-1%	5%
N#CCCN1CCN(C(=O)OC[C@H]2O[C@@H](n3cnc4c(N)ncnc43)[C@H](O)[C@@H]2O)CC1 [Compound C70]	-6%	-7%	-12%	1%	-1%	8%	6%	0%	4%
Nc1ncnc2c1ncn2[C@@H]1O[C@H](COC(=O)NCCCc2nc3ccccc3[nH]2)[C@@H](O)[C@H]1O [Compound C1]	-2%	13%	-10%	3%	9%	17%	3%	7%	8%
CN1CCN(CCNC(=O)OC[C@H]2O[C@@H](n3cnc4c(N)ncnc43)[C@H](O)[C@@H]2O)CC1 [Compound C46]	5%	10%	-3%	0%	3%	4%	4%	5%	3%
Nc1ncnc2c1ncn2[C@@H]1O[C@H](COC(=O)N2CCC(Cc3ccc(F)cc3)C2)[C@@H](O)[C@H]1O (stereo partly drawn) [Compound C66]	-4%	-2%	-11%	4%	4%	14%	-4%	1%	9%
Nc1ncnc2c1ncn2[C@@H]1O[C@H](COC(=O)N2CCC[C@H]2CO)[C@@H](O)[C@H]1O [Compound C9]	-3%	-2%	-8%	-4%	-5%	4%	6%	-6%	5%
Nc1ncnc2c1ncn2[C@@H]1O[C@H](COC(=O)NCCN2CCCC2=O)[C@@H](O)[C@H]1O [Compound C22]	0%	-5%	-13%	0%	5%	4%	8%	3%	1%
